From patent US8119695B2, “Compounds and methods for treating breast cancer and other diseases” (City of Hope, priority 2003, dated 2012)

Legend:
Format in all cases: cell-based
ERRγ (GAL-ERRg) = experiment: MH100x4 luciferase reporter with GAL-ERRg; parameters: Reporter Activity: unit not given here; conditions: for Fold Activation / Reporter Activity: Table 3, dose 2.5 (unit not given); for Fold Activation: None 1; for Reporter Activity: None 2.2
Excerpt: (§1) MH100x4 is a luciferase reporter with four copies of a GAL4 […] response element. GAL-L refers to the ligand-binding domain of the indicated receptor fused to the C-terminus of the GAL4 DNA binding domain.

ERRα (GAL-ERRa) = experiment: MH100x4 luciferase reporter with GAL-ERRa; parameters: Reporter Activity: unit not given here
Excerpt: as §1

ERRβ (GAL-L-ERRb) = target: T1, ERRβ (GAL-L-ERRb) (Homo sapiens, UniProt O95718); experiment: MH100x4 luciferase reporter with GAL-L-ERRb; parameters: Reporter Activity: unit not given here
T1 construct: expressed in transfected cells
T1 sequence (O95718 208-432 limits assumed): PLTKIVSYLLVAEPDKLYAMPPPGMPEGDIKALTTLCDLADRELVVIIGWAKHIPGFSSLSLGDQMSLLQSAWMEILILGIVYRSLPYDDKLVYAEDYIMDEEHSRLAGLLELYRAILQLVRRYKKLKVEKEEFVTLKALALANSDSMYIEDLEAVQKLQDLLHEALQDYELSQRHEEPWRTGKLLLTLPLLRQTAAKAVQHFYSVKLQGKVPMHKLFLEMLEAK
Excerpt: as §1

MH100x4 = MH100x4 luciferase reporter without receptor; conditions: Table 3, dose 2.5 (unit not given); for Reporter Activity: None 0.57; for Fold Activation: None 1
Excerpt: as §1

ERRs = experiment: repression / antagonism of ERRs; conditions: result in words
ERβ (ERb) = target: T2, ERβ (ERb) (Homo sapiens, UniProt Q92731); experiment: ERE-TK-luc reporter with ERb, E2 100 nM; conditions: Table 6, None 2.88
T2 construct: expressed in transfected cells

ERE-TK-luc = ERE-TK-luc reporter without receptor, E2 100 nM; conditions: Table 6; for Fold Activation: None 1.00; for Reporter Activity: None 1.44
ERα (ERa) = target: T3, ERα (ERa) (Homo sapiens, UniProt P03372); experiment: ERE-TK-luc reporter with ERa, E2 100 nM; conditions: Table 6, None 3.43
T3 construct: expressed in transfected cells
T3 sequence (P03372 1-595): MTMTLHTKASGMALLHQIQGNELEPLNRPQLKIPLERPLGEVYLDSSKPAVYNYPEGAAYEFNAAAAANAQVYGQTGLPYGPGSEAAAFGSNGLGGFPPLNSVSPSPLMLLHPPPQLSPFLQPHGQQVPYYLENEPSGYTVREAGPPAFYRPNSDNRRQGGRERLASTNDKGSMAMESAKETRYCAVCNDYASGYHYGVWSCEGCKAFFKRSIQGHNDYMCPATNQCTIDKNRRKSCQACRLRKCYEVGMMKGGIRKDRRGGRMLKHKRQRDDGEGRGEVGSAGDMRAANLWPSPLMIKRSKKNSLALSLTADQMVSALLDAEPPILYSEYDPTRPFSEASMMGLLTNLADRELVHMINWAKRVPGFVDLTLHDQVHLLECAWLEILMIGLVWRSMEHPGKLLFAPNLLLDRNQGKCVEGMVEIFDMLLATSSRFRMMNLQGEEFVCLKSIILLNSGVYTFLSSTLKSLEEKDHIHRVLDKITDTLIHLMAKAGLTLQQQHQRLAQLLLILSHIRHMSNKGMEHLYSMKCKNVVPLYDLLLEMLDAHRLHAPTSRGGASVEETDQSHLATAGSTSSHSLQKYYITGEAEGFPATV

[1] = Table 3, dose 2.5 (unit not given), None 1
[2] = Table 3, dose 2.5 (unit not given), None 8.18
[3] = Table 3, dose 2.5 (unit not given), None 2.38
[4] = E2 100 nM + DY 40, head 0 μM (1st)
[5] = E2 100 nM + DY 40, head 0 μM (2nd)

T2 sequence (Q92731 whole entry, species assumed): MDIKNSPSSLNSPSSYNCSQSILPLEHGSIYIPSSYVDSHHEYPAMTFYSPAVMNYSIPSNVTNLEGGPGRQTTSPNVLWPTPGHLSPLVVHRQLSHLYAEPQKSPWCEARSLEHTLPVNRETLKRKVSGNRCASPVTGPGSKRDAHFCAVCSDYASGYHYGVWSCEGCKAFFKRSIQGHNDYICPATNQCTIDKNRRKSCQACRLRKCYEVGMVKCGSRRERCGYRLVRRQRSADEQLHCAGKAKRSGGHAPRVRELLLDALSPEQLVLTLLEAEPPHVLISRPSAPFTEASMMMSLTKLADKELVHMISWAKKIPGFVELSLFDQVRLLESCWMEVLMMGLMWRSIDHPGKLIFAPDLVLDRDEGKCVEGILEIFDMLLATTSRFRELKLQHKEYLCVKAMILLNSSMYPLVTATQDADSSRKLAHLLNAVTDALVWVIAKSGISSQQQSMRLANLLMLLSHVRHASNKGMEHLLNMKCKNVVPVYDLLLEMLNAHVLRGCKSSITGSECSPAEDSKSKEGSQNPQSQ

`Oc1ccc(C(=C(CCCCl)c2ccccc2)c2ccc(O)cc2)cc1` [DY31] was tested, and the “Fold Activation” value (ERRγ (GAL-ERRg)) was 0.53, the “Reporter Activity” value (ERRγ (GAL-ERRg)) was 1.16 and the “Fold Activation” value (ERRα (GAL-ERRa); [1]) was 1.06. The “Reporter Activity” value (ERRα (GAL-ERRa); [2]) was 8.71, the “Fold Activation” value (ERRβ (GAL-L-ERRb); [1]) was 0.74 and the “Reporter Activity” value (ERRβ (GAL-L-ERRb); [3]) was 1.75. The “Reporter Activity” value (MH100x4) was 0.4, the “Fold Activation” value (MH100x4) was 0.7 and the “repression of ERRs” value (ERRs) was “does not repress ERRs”.
For `Oc1ccc(C(=C(CCCl)c2ccccc2)c2ccc(O)cc2)cc1` [DY30], the “Fold Activation” value (ERRγ (GAL-ERRg)) was 0.68, the “Reporter Activity” value (ERRγ (GAL-ERRg)) was 1.5 and the “Fold Activation” value (ERRα (GAL-ERRa); [1]) was 1.03. The “Reporter Activity” value (ERRα (GAL-ERRa); [2]) was 8.46, the “Fold Activation” value (ERRβ (GAL-L-ERRb); [1]) was 0.86 and the “Reporter Activity” value (ERRβ (GAL-L-ERRb); [3]) was 2.04. The “Reporter Activity” value (MH100x4) was 0.56, the “Fold Activation” value (MH100x4) was 0.98 and the “repression of ERRs” value (ERRs) was “does not repress ERRs”.
In the case of `CCC(=C(c1ccc(O)cc1)c1ccc(O)cc1)c1ccccc1` [DY25, 1,1-Bis(4-hydroxyphenyl)-2-phenylbut-1-ene], the “repression of ERRs” value (ERRs) was “does not repress ERRs”.
For `CC(C)C(=C(c1ccc(O)cc1)c1ccc(O)cc1)c1ccccc1` [DY34, 1,1-Bis(4-hydroxyphenyl)-2-phenylbut-3-methyl-1-ene], the “Fold Activation” value (ERRγ (GAL-ERRg)) was 0.61, the “Reporter Activity” value (ERRγ (GAL-ERRg)) was 1.35 and the “Fold Activation” value (ERRα (GAL-ERRa); [1]) was 1.01. For the same compound, the “Reporter Activity” value (ERRα (GAL-ERRa); [2]) was 8.24, the “Fold Activation” value (ERRβ (GAL-L-ERRb); [1]) was 0.48 and the “Reporter Activity” value (ERRβ (GAL-L-ERRb); [3]) was 1.15. The “repression of ERRs” value (ERRs) was “does not repress ERRs”.
With `CCCC(=C(c1ccc(O)cc1)c1ccc(O)cc1)c1ccccc1` [DY37] the “repression of ERRs” value (ERRs) was “does not repress ERRs”.
With `CC(=O)Oc1ccc(/C(=C(/c2ccccc2)C(C)C)c2ccc(OCCN(C)C)cc2)cc1` [DY40, (E,Z)-4-{1-[4-(2-dimethylamino-ethoxy)-phenyl]-3-methyl-2-phenyl-but-1-enyl}-phenyl acetate] the “Reporter Activity” value (ERβ (ERb); E2 100 nM + DY 40 0.01 μM) was 3.19, the “Reporter Activity” value (ERβ (ERb); E2 100 nM + DY 40 0.03 μM) was 2.36 and the “Reporter Activity” value (ERβ (ERb); E2 100 nM + DY 40 0.1 μM) was 1.58. For the same compound, the “Reporter Activity” value (ERβ (ERb); E2 100 nM + DY 40 0.3 μM) was 1.09, the “Reporter Activity” value (ERβ (ERb); [4]) was 9.37 and the “Reporter Activity” value (ERβ (ERb); [5]) was 6.03. For the same compound, the “Fold Activation” value (ERE-TK-luc; E2 100 nM + DY 40 0.01 μM) was 1.03, the “Reporter Activity” value (ERE-TK-luc; E2 100 nM + DY 40 0.01 μM) was 1.48 and the “Fold Activation” value (ERE-TK-luc; E2 100 nM + DY 40 0.03 μM) was 0.85. For the same compound, the “Reporter Activity” value (ERE-TK-luc; E2 100 nM + DY 40 0.03 μM) was 1.22, the “Fold Activation” value (ERE-TK-luc; E2 100 nM + DY 40 0.1 μM) was 0.69 and the “Reporter Activity” value (ERE-TK-luc; E2 100 nM + DY 40 0.1 μM) was 0.99. For the same compound, the “Fold Activation” value (ERE-TK-luc; E2 100 nM + DY 40 0.3 μM) was 0.47, the “Reporter Activity” value (ERE-TK-luc; E2 100 nM + DY 40 0.3 μM) was 0.67 and the “Fold Activation” value (ERE-TK-luc; [4]) was 0.90. For the same compound, the “Reporter Activity” value (ERE-TK-luc; [4]) was 1.29, the “Fold Activation” value (ERE-TK-luc; [5]) was 0.81 and the “Reporter Activity” value (ERE-TK-luc; [5]) was 1.17. The “inhibition of the activity of ERRγ” value (ERRγ (GAL-ERRg)) was “inhibit the activity”, the “potency antagonizing ERRγ relative to 4-hydroxytamoxifen” value (ERRγ (GAL-ERRg)) was “about 30 fold” and the “Fold Activation” value (ERRα (GAL-ERRa); Table 4, DY40 dose head 0 (1st of 3), None 1.23) was 1.24. The “Reporter Activity” value (ERRα (GAL-ERRa); Table 4, DY40 dose head 0 (1st of 3), None 34.05) was 34.34, the “Fold Activation” value (ERRα (GAL-ERRa); Table 4, DY40 dose head 0 (2nd of 3), None 1.23) was 1.17 and the “Reporter Activity” value (ERRα (GAL-ERRa); Table 4, DY40 dose head 0 (2nd of 3), None 34.05) was 32.4. The “Fold Activation” value (ERRα (GAL-ERRa); Table 4, DY40 dose head 0 (3rd of 3), None 1.23) was 1.23, the “Reporter Activity” value (ERRα (GAL-ERRa); Table 4, DY40 dose head 0 (3rd of 3), None 34.05) was 34 and the “Fold Activation” value (ERRα (GAL-ERRa); Table 4, dose 0.1 (unit not given), None 1/1.23) was 1.3. The “Reporter Activity” value (ERRα (GAL-ERRa); Table 4, dose 0.1 (unit not given), None 27.7/34.05) was 37, the “Fold Activation” value (ERRα (GAL-ERRa); Table 4, dose 0.3 (unit not given), None 1/1.23) was 1.47 and the “Reporter Activity” value (ERRα (GAL-ERRa); Table 4, dose 0.3 (unit not given), None 27.7/34.05) was 40.8. For the same compound, the “Fold Activation” value (ERRα (GAL-ERRa); Table 4, dose 1 (unit not given), None 1/1.23) was 0.98, the “Reporter Activity” value (ERRα (GAL-ERRa); Table 4, dose 1 (unit not given), None 27.7/34.05) was 27.3 and the “Reporter Activity” value (ERα (ERa); E2 100 nM + DY 40 0.01 μM) was 5.07. For the same compound, the “Reporter Activity” value (ERα (ERa); E2 100 nM + DY 40 0.03 μM) was 2.42, the “Reporter Activity” value (ERα (ERa); E2 100 nM + DY 40 0.1 μM) was 1.97 and the “Reporter Activity” value (ERα (ERa); E2 100 nM + DY 40 0.3 μM) was 1.32. The “Reporter Activity” value (ERα (ERa); [4]) was 13.55, the “Reporter Activity” value (ERα (ERa); [5]) was 8.57 and the “Fold Activation” value (ERRβ (GAL-L-ERRb); Table 4, DY40 dose head 0 (1st of 3), None 1.2) was 1.33. The “Reporter Activity” value (ERRβ (GAL-L-ERRb); Table 4, DY40 dose head 0 (1st of 3), None 8.67) was 9.61, the “Fold Activation” value (ERRβ (GAL-L-ERRb); Table 4, DY40 dose head 0 (2nd of 3), None 1.2) was 0.92 and the “Reporter Activity” value (ERRβ (GAL-L-ERRb); Table 4, DY40 dose head 0 (2nd of 3), None 8.67) was 6.61. The “Fold Activation” value (ERRβ (GAL-L-ERRb); Table 4, DY40 dose head 0 (3rd of 3), None 1.2) was 0.7, the “Reporter Activity” value (ERRβ (GAL-L-ERRb); Table 4, DY40 dose head 0 (3rd of 3), None 8.67) was 5.07 and the “Fold Activation” value (ERRβ (GAL-L-ERRb); Table 4, dose 0.1 (unit not given), None 1/1.2) was 0.2. The “Reporter Activity” value (ERRβ (GAL-L-ERRb); Table 4, dose 0.1 (unit not given), None 7.21/8.67) was 1.4, the “Fold Activation” value (ERRβ (GAL-L-ERRb); Table 4, dose 0.3 (unit not given), None 1/1.2) was 0.1 and the “Reporter Activity” value (ERRβ (GAL-L-ERRb); Table 4, dose 0.3 (unit not given), None 7.21/8.67) was 0.73. The “Fold Activation” value (ERRβ (GAL-L-ERRb); Table 4, dose 1 (unit not given), None 1/1.2) was 0.08, the “Reporter Activity” value (ERRβ (GAL-L-ERRb); Table 4, dose 1 (unit not given), None 7.21/8.67) was 0.59 and the “potency antagonizing ERRβ relative to 4-hydroxytamoxifen” value (ERRβ (GAL-L-ERRb); greater than 4-hydroxytamoxifen) was “about 30 fold”. The “inhibition of the activity of ERRβ” value (ERRβ (GAL-L-ERRb); result in words) was “inhibit the activity”.
